Laboratory results from ChEMBL document CHEMBL1127421, “The synthesis and in vitro evaluation of a 99mtechnetium-nitroimidazole complex based on a bis(amine-phenol) ligand: comparison to BMS-181321” (J Med Chem, 1994).

What was measured:
Bos taurus = species: Bos taurus; experiment: Compound was evaluated for permeability index in cultured bovine endothelial cell monolayer system; type: ADME; settings: cattle
Rattus norvegicus [1] = species: Rattus norvegicus; experiment: In vitro evaluation of efficacy of BAPN in isolated cardiac myocytes under anoxia condition; type: functional, cell-based
Rattus norvegicus [2] = species: Rattus norvegicus; experiment: In vitro evaluation of efficacy of BAPN in isolated cardiac myocytes under normoxia condition; type: functional, cell-based
Rattus norvegicus [3] = species: Rattus norvegicus; experiment: Ratio in isolated cardiac myocytes under anoxic/oxic conditions; type: functional, cell-based
Rattus norvegicus [4] = species: Rattus norvegicus; experiment: In vitro evaluation of efficacy of BAPN in isolated cardiac myocytes under anoxic/oxic conditions; type: functional, cell-based

| Permeability index (Bos taurus) | Substance | Retention (Rattus norvegicus [1]) | Retention (Rattus norvegicus [2]) | Ratio (Rattus norvegicus [3]) | Ratio (Rattus norvegicus [4]) |
| --- | --- | --- | --- | --- | --- |
| -0.25 Pi | 99m Tc-BAPN [listing 1 of 2 here] |  |  |  |  |
|  | 99m Tc-BAPN [listing 2 of 2 here] | 41.4% | 38.2% | 1.08 |  |
|  | 99m Tc-BMS 181321 [listing 1 of 2 here] |  | 17.6% | 3.03% | 3.03 |
| 63.2 Pi | 99m Tc-BMS 181321 [listing 2 of 2 here] |  |  |  |  |
